# Measurements published in ChEMBL document CHEMBL1201862, “PubChem BioAssay data set” (2004).
#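 Exposure lasted 48 hours, with cells grown in 96-well plates and compounds tested at five concentrations. GI50 is the concentration that inhibits growth by half.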 Active and inactive are the calls of the source. Cut-off read from the data, not from the text of the source: active = GI50 up to about 1.1 µM and inactive = higher.
# Legend:
# Experiment in all cases: DTP human tumour cell line panel, 48 h
# 786-0 = test system: 786-0
# A498 = test system: A498
# A549 = test system: A549
# ACHN = test system: ACHN
# CAKI-1 = test system: CAKI-1
# CCRF-CEM = test system: CCRF-CEM
# COLO 205 = test system: COLO 205
# DLD-1 = test system: DLD-1
# DMS-114 = test system: DMS-114
# DMS-273 = test system: DMS-273
# EKVX = test system: EKVX
# HCC 2998 = test system: HCC 2998
# HCT-116 = test system: HCT-116
# HCT-15 = test system: HCT-15
# HL-60 = test system: HL-60
# HOP-18 = test system: HOP-18
# HOP-62 = test system: HOP-62
# HOP-92 = test system: HOP-92
# HT-29 = test system: HT-29
# IGROV-1 = test system: IGROV-1
# K562 = test system: K562
# KM-20L2 = test system: KM-20L2
# KM12 = test system: KM12
# LOX IMVI = test system: LOX IMVI
# LXFL 529 = test system: LXFL 529
# M14 = test system: M14
# M19-MEL = test system: M19-MEL
# MOLT-4 = test system: MOLT-4
# Malme-3M = test system: Malme-3M
# NCI-H226 = test system: NCI-H226
# NCI-H23 = test system: NCI-H23
# NCI-H460 = test system: NCI-H460
# NCI-H522 = test system: NCI-H522
# OVCAR-3 = test system: OVCAR-3
# OVCAR-4 = test system: OVCAR-4
# OVCAR-5 = test system: OVCAR-5
# OVCAR-8 = test system: OVCAR-8
# RPMI-8226 = test system: RPMI-8226
# RXF 393 = test system: RXF 393
# RXF 631 = test system: RXF 631
# SF-268 = test system: SF-268
# SF-295 = test system: SF-295
# SF-539 = test system: SF-539
# SK-MEL-28 = test system: SK-MEL-28
# SK-MEL-5 = test system: SK-MEL-5
# SK-OV-3 = test system: SK-OV-3
# SN12C = test system: SN12C
# SNB-19 = test system: SNB-19
# SNB-75 = test system: SNB-75
# SNB-78 = test system: SNB-78
# SR = test system: SR
# SW-620 = test system: SW-620
# TK-10 = test system: TK-10
# U-251 = test system: U-251
# UACC-257 = test system: UACC-257
# UACC-62 = test system: UACC-62
# UO-31 = test system: UO-31
# XF498 = test system: XF498
# SK-MEL-2 = test system: SK-MEL-2
compound,measurement,setting,value
CCC(CC)n1cc(C(=O)NC(=O)NCCCCCOC(=O)CCCCCCCCCCC(=O)OCCCCCNC(=O)NC(=O)c2cn(C(CC)CC)c(=O)[nH]c2=O)c(=O)[nH]c1=O,GI50,786-0,45.8 µM (inactive)
same,GI50,A498,> 100 µM (inactive)
same,GI50,A549,> 100 µM (inactive)
same,GI50,ACHN,> 100 µM (inactive)
same,GI50,CAKI-1,> 100 µM (inactive)
same,GI50,CCRF-CEM,> 100 µM (inactive)
same,GI50,COLO 205,> 100 µM (inactive)
same,GI50,DLD-1,> 100 µM (inactive)
same,GI50,DMS-114,> 100 µM (inactive)
same,GI50,DMS-273,> 100 µM (inactive)
same,GI50,EKVX,> 100 µM (inactive)
same,GI50,HCC 2998,> 100 µM (inactive)
same,GI50,HCT-116,> 100 µM (inactive)
same,GI50,HCT-15,> 100 µM
same,GI50,HL-60,> 100 µM (inactive)
same,GI50,HOP-18,> 100 µM (inactive)
same,GI50,HOP-62,> 100 µM (inactive)
same,GI50,HOP-92,> 100 µM (inactive)
same,GI50,HT-29,> 100 µM (inactive)
same,GI50,IGROV-1,> 100 µM (inactive)
same,GI50,K562,> 100 µM (inactive)
same,GI50,KM-20L2,> 100 µM (inactive)
same,GI50,KM12,> 100 µM (inactive)
same,GI50,LOX IMVI,> 100 µM (inactive)
same,GI50,LXFL 529,62.8 µM (inactive)
same,GI50,M14,> 100 µM (inactive)
same,GI50,M19-MEL,> 100 µM (inactive)
same,GI50,MOLT-4,> 100 µM (inactive)
same,GI50,Malme-3M,> 100 µM (inactive)
same,GI50,NCI-H226,> 100 µM (inactive)
same,GI50,NCI-H23,> 100 µM (inactive)
same,GI50,NCI-H460,> 100 µM (inactive)
same,GI50,NCI-H522,> 100 µM (inactive)
same,GI50,OVCAR-3,> 100 µM (inactive)
same,GI50,OVCAR-4,> 100 µM (inactive)
same,GI50,OVCAR-5,> 100 µM (inactive)
same,GI50,OVCAR-8,64.3 µM (inactive)
same,GI50,RPMI-8226,> 100 µM (inactive)
same,GI50,RXF 393,29.1 µM (inactive)
same,GI50,RXF 631,> 100 µM (inactive)
same,GI50,SF-268,> 100 µM (inactive)
same,GI50,SF-295,> 100 µM (inactive)
same,GI50,SF-539,47.2 µM (inactive)
same,GI50,SK-MEL-28,> 100 µM (inactive)
same,GI50,SK-MEL-5,> 100 µM (inactive)
same,GI50,SK-OV-3,> 100 µM (inactive)
same,GI50,SN12C,> 100 µM (inactive)
same,GI50,SNB-19,27.7 µM (inactive)
same,GI50,SNB-75,22.8 µM (inactive)
same,GI50,SNB-78,> 100 µM (inactive)
same,GI50,SR,> 100 µM (inactive)
same,GI50,SW-620,> 100 µM (inactive)
same,GI50,TK-10,> 100 µM (inactive)
same,GI50,U-251,88.3 µM (inactive)
same,GI50,UACC-257,> 100 µM (inactive)
same,GI50,UACC-62,> 100 µM (inactive)
same,GI50,UO-31,> 100 µM (inactive)
same,GI50,XF498,> 100 µM (inactive)
COC(=O)CCC(NC(=S)N/N=C/c1cccs1)C(=O)OC (stereo not drawn),GI50,786-0,> 100 µM (inactive)
same,GI50,A498,> 100 µM (inactive)
same,GI50,A549,> 100 µM (inactive)
same,GI50,ACHN,> 100 µM (inactive)
same,GI50,COLO 205,> 100 µM (inactive)
same,GI50,DLD-1,> 100 µM (inactive)
same,GI50,DMS-114,> 100 µM (inactive)
same,GI50,DMS-273,> 100 µM (inactive)
same,GI50,EKVX,> 100 µM (inactive)
same,GI50,HCC 2998,> 100 µM (inactive)
same,GI50,HCT-116,> 100 µM (inactive)
same,GI50,HCT-15,> 100 µM
same,GI50,HL-60,> 100 µM (inactive)
same,GI50,HOP-18,> 100 µM (inactive)
same,GI50,HOP-62,> 100 µM (inactive)
same,GI50,HOP-92,> 100 µM (inactive)
same,GI50,HT-29,> 100 µM (inactive)
same,GI50,IGROV-1,> 100 µM (inactive)
same,GI50,K562,> 100 µM (inactive)
same,GI50,KM-20L2,> 100 µM (inactive)
same,GI50,KM12,> 100 µM (inactive)
same,GI50,LOX IMVI,> 100 µM (inactive)
same,GI50,LXFL 529,> 100 µM (inactive)
same,GI50,M14,> 100 µM (inactive)
same,GI50,M19-MEL,> 100 µM (inactive)
same,GI50,Malme-3M,> 100 µM (inactive)
same,GI50,NCI-H226,> 100 µM (inactive)
same,GI50,NCI-H23,> 100 µM (inactive)
same,GI50,NCI-H460,> 100 µM (inactive)
same,GI50,NCI-H522,> 100 µM (inactive)
same,GI50,OVCAR-3,> 100 µM (inactive)
same,GI50,OVCAR-4,> 100 µM (inactive)
same,GI50,OVCAR-5,> 100 µM (inactive)
same,GI50,OVCAR-8,> 100 µM (inactive)
same,GI50,RXF 393,> 100 µM (inactive)
same,GI50,RXF 631,> 100 µM (inactive)
same,GI50,SF-268,> 100 µM (inactive)
same,GI50,SF-295,> 100 µM (inactive)
same,GI50,SF-539,> 100 µM (inactive)
same,GI50,SK-MEL-28,> 100 µM (inactive)
same,GI50,SK-MEL-2,> 100 µM (inactive)
same,GI50,SK-MEL-5,> 100 µM (inactive)
same,GI50,SK-OV-3,> 100 µM (inactive)
same,GI50,SN12C,> 100 µM (inactive)
same,GI50,SNB-19,> 100 µM (inactive)
same,GI50,SNB-75,> 100 µM (inactive)
same,GI50,SNB-78,> 100 µM (inactive)
same,GI50,SR,> 100 µM (inactive)
same,GI50,SW-620,> 100 µM (inactive)
same,GI50,TK-10,> 100 µM (inactive)
same,GI50,U-251,> 100 µM (inactive)
same,GI50,UACC-257,> 100 µM (inactive)
same,GI50,UACC-62,> 100 µM (inactive)
same,GI50,UO-31,> 100 µM (inactive)
same,GI50,XF498,> 100 µM (inactive)
